Assay results reported in patent US20220054494A1, “METHODS FOR TREATING BLADDER AND URETHRA DYSFUNCTION AND DISEASE” (University of Pittsburgh - Of the Commonwealth System of …, priority 2019, published 2022).
“Also recorded” adds a separate entry of the source.

Assays:
cleaved PARP = assay: Western immunoblotting, cleaved PARP; assay type: in vivo, rat; details: aged rats; oral 8-AG 5 mg/kg/day, 6 weeks
Protocol: Western immunoblotting: One half of each bladder preparation was homogenized using Lysing Matrix D in a FastPrep 24 instrument (MP Biomedicals, Solon, Ohio) in HBSS (5 mM KCl, 0.3 mM KH2PO4, 138 mM NaCl, 4 mM NaHO3, 0.3 mM Na2HCO3, 0.3 mM Na2HPO4, 5.6 mM glucose and 10 mM Hepes, pH 7.4) containing complete protease inhibitor cocktail (1 tablet/10 ml, ROCHE®, Indianapolis, Ind.)) and phosphatase inhibitor cocktail (SIGMA®, 1:100). After centrifugation (13000 rpm; 15 min at 4° C.), the membrane protein fraction was prepared by suspending the membrane pellets in lysis buffer containing 0.3 M NaCl, 50 mM Tris-HCl (pH 7.6) and 0.5% Triton X-100 and the same concentration of protease inhibitors as above. The suspensions were incubated on ice and centrifuged (13000 rpm; 15 min at 4° C.). The protein concentrations of the combined supernatants were determined using the PIERCE® BCA protein assay (THERMO SCIENTIFIC®, Rockford, Ill.). After denaturation (100° C. for 5 min) in the presence of Laemmli sample buffer, lysate from each sample was separated on a 4-15% TGX Stain-Free SDS-PAGE gel (BIO-RAD® Laboratories, Hercules, Calif.). As a loading control, total protein per sample was determined using Bio-Rad® Stain Free SDS-PAGE gel technology. UV-activated protein fluorescence was imaged on a CHEMIDOC® MP (BIO-RAD®). […] The volume (intensity) of each protein species was determined and normalized to total protein using Image Lab software (BIO-RAD®).

cathepsin B = assay: Western immunoblotting, cathepsin B; assay type: in vivo, rat; details: aged rats; oral 8-AG 5 mg/kg/day, 6 weeks
Protocol: Western immunoblotting: Following the testing paradigms, rats were deeply anesthetized, bladders as well as the proximal urethra were removed, and one half of each preparation was homogenized using Lysing Matrix D in a FastPrep 24 instrument (MP Biomedicals, Solon, Ohio) in HBSS [5 mM KCl, 0.3 mM KH2PO4, 138 mM NaCl, 4 mM NaHO3, 0.3 mM Na2HCO3, 0.3 mM Na2HPO4, 5.6 mM glucose, and 10 mM Hepes, pH 7.4 containing a complete protease inhibitor cocktail (1 tablet/10 ml, ROCHE®, Indianapolis, Ind.) and a phosphatase inhibitor cocktail (SIGMA®, 1:100)]. After centrifugation (13000 rpm; 15 min at 4° C.), the membrane protein fraction was prepared by suspending the membrane pellets in lysis buffer containing 0.3 M NaCl, 50 mM Tris-HCl (pH 7.6), and 0.5% Triton X-100 and the same concentration of protease inhibitors as above. The suspensions were incubated on ice and centrifuged (13000 rpm; 15 min at 4° C.). The protein concentrations of the combined supernatants were determined using the PIERCE® BCA protein assay (THERMO SCIENTIFIC®, Rockford, Ill.). […] As a loading control, total protein per sample was determined using Bio-Rad Stain Free SDS-PAGE gel technology. UV-activated protein fluorescence was imaged on a CHEMIDOC® MP (BIO-RAD®). […] The volume (intensity) of each protein species was determined and normalized to total protein using Image Lab software (BIO-RAD®). […]

Nc1nc2[nH]c(N)nc2c(=O)[nH]1 [8-AG, 8-Aminoguanine]
EUS cleaved PARP (cleaved PARP): restored to a younger state | cleaved PARP in detrusor smooth muscle (cleaved PARP): levels similar to the younger state; also recorded: restored these biomarkers to that of a younger state | urethral cleaved PARP (cleaved PARP): normalized to a younger state | cathepsin B expression in urethra (cathepsin B): trend toward reversal
